Active and inactive are the calls of the source.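 Rule for the calls: active = IC50 below 50 µM against the phosphatase PP2C-alpha; inactive = IC50 at or above 50 µM.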
Biological target: Protein phosphatase 1A (Homo sapiens) (UniProt P35813)
Experiment: PP2C-alpha phosphatase inhibitors, late-stage follow-up, selectivity assay for PP5 inhibitor project, biochemical, fluorescence, OMFP substrate, round 5 (AID 624438)
Conditions: purified MBP-PP2C-alpha, OMFP dephosphorylation fluorescence

Protein phosphatase 1A (Homo sapiens), sequence (P35813 whole entry, looked up): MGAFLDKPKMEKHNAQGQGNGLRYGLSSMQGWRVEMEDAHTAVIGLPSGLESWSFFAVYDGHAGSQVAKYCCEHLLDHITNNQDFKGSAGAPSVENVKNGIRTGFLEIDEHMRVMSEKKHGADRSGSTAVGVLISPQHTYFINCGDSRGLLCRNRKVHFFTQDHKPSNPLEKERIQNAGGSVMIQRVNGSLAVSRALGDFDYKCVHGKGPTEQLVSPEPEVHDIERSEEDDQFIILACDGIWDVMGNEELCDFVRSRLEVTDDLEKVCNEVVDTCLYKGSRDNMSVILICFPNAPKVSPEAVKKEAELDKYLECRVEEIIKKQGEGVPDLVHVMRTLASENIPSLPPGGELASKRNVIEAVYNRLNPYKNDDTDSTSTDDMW

IC50: > 1000 µM (inactive)
SMILES: CC(C)Oc1ccccc1-c1n[nH]nc1C(=O)O

Source: PubChem BioAssay AID624438 (The Scripps Research Institute Molecular Screening Center, 2012)
